Among the data in PubChem BioAssay (NCI) are GI50 and TGI values, retold here.

Some test systems named below: OVCAR-3 ovarian; COLO 205 colon; RPMI-8226 leukemia; LOX IMVI melanoma; MDA-MB-231 breast; CCRF-CEM leukemia; UO-31 renal; OVCAR-8 ovarian; EKVX NSCLC; ACHN renal.
Assay in all cases: growth of human tumour cells (NCI), 48 h

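Results reflect a 48-hour exposure of cells in 96-well plates to compound at five concentrations. Here, GI50 denotes the concentration required for 50% inhibition of growth. TGI: concentration producing complete growth inhibition.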 A value given as a limit tells only on which side of the number the result lay.

Turning to `O=C(Nc1ccc(-n2cc(-c3ccncc3)c(-c3ccc(O)c(Cl)c3)n2)cc1)Nc1ccc(Cl)c(C(F)(F)F)c1`, the GI50 with OVCAR-3 ovarian was 3.23 µM; in the assay with COLO 205 colon, 6.23 µM; with RPMI-8226 leukemia, 1.99 µM; with LOX IMVI melanoma, 2.14 µM; in the assay on MDA-MB-231 breast, 3.2 µM; in the assay with CCRF-CEM leukemia, 3.2 µM. Besides, the GI50 in the assay on UO-31 renal was 3.01 µM; in the assay with OVCAR-8 ovarian, 4.11 µM; with EKVX NSCLC it was 3.21 µM; in the assay with ACHN renal it was 2.66 µM. Further, the TGI was found to be 10.9 µM in the assay with OVCAR-3 ovarian; 22.9 µM in the assay with COLO 205 colon; 5.32 µM in the assay with RPMI-8226 leukemia; 18 µM in the assay with LOX IMVI melanoma; 12.5 µM in the assay on MDA-MB-231 breast; 22.3 µM with CCRF-CEM leukemia. Further, the TGI in the assay with UO-31 renal was 16.4 µM; in the assay with OVCAR-8 ovarian it was 21.3 µM; in the assay on EKVX NSCLC, 25.4 µM; in the assay on ACHN renal it was 9.42 µM.

Turning to `C/C(=N\NC(=S)NCCCCNC(=S)N/N=C(\C)c1ccccn1)c1ccccc1`, the TGI is above 65.2 µM with OVCAR-3 ovarian; 14.3 µM with RPMI-8226 leukemia; 14.3 µM in the assay on LOX IMVI melanoma; above 52.7 µM in the assay with MDA-MB-231 breast; 13.1 µM in the assay on UO-31 renal; 5.63 µM with OVCAR-8 ovarian. Besides, the TGI in the assay with EKVX NSCLC is above 100 µM; in the assay with ACHN renal, above 24 µM.

For `CC(C)C(=O)CC(c1ccc(Cl)cc1)N1N=C(C(C)C)CC1c1ccc(Cl)cc1` (centres undefined), the GI50 in the assay with OVCAR-3 ovarian was 45.6 µM. Further, the TGI in the assay with OVCAR-3 ovarian is above 100 µM; with COLO 205 colon, above 100 µM; in the assay on RPMI-8226 leukemia, above 100 µM; with LOX IMVI melanoma it was above 100 µM; in the assay with CCRF-CEM leukemia, above 69.8 µM; with UO-31 renal, above 100 µM. Further, the values for the TGI with OVCAR-8 ovarian, in the assay on EKVX NSCLC and in the assay with ACHN renal were above 65.8 µM, above 100 µM and above 100 µM, respectively.

Consider `CC(C)CC(=O)NC(C(=O)NC(C(=O)NC(CC(C)C)C(O)CC(=O)NC(C)C(=O)NC(CC(C)C)C(O)CC(=O)O)C(C)C)C(C)C` (centres undefined), for which the TGI with OVCAR-3 ovarian, in the assay with COLO 205 colon, with RPMI-8226 leukemia, in the assay with LOX IMVI melanoma, in the assay on MDA-MB-231 breast and with CCRF-CEM leukemia was above 100 µM in each case. In addition, the TGI with UO-31 renal, in the assay on OVCAR-8 ovarian, in the assay on EKVX NSCLC and in the assay with ACHN renal was above 100 µM throughout.

`CC(=O)O[C@@H]1C(=O)N(c2ccccc2)[C@@H]1c1cc2ccccc2c2ccccc12`: the TGI in the assay with OVCAR-3 ovarian was 83.4 µM; in the assay on COLO 205 colon, 32.3 µM; in the assay on RPMI-8226 leukemia it was 82.6 µM; in the assay with LOX IMVI melanoma, 64.3 µM; in the assay on MDA-MB-231 breast, 75.1 µM; in the assay on CCRF-CEM leukemia it was above 100 µM. The TGI in the assay on UO-31 renal is 87 µM; in the assay with OVCAR-8 ovarian, above 100 µM; with EKVX NSCLC, above 100 µM; in the assay with ACHN renal it was above 100 µM.

With `N#CCCN(CCC#N)c1ccc(/C=C(\NC(=O)c2cc([N+](=O)[O-])ccc2Cl)C(=O)Nc2ccccc2)cc1`, the TGI with OVCAR-3 ovarian, in the assay on COLO 205 colon, with RPMI-8226 leukemia, in the assay on LOX IMVI melanoma, in the assay with CCRF-CEM leukemia and in the assay with UO-31 renal was above 100 µM throughout. For the same compound, the TGI in the assay on OVCAR-8 ovarian, with EKVX NSCLC and in the assay on ACHN renal was above 100 µM each time.

Regarding `Cn1ccc(C(=O)NCCN(CCNC(=O)c2ccn(C)c(=O)c2O)CCNC(=O)c2ccn(C)c(=O)c2O)c(O)c1=O`, the TGI in the assay on OVCAR-3 ovarian, with COLO 205 colon, in the assay on RPMI-8226 leukemia, in the assay with MDA-MB-231 breast, with CCRF-CEM leukemia and with UO-31 renal was above 100 µM each time. For the same compound, the TGI in the assay on OVCAR-8 ovarian and in the assay on ACHN renal was above 100 µM throughout.

As to `CCCn1cc2c(SC)nc(SC)nc2n1`, the TGI in the assay on COLO 205 colon, with RPMI-8226 leukemia, in the assay on LOX IMVI melanoma, in the assay on CCRF-CEM leukemia, in the assay on UO-31 renal and with OVCAR-8 ovarian was above 100 µM in each case. Further, the TGI with EKVX NSCLC and in the assay on ACHN renal was above 100 µM throughout.

Turning to `O=C(O)CCc1nc2ccccc2[nH]1`, the TGI in the assay with OVCAR-3 ovarian, in the assay on COLO 205 colon, in the assay with RPMI-8226 leukemia, with LOX IMVI melanoma, in the assay on MDA-MB-231 breast and in the assay with CCRF-CEM leukemia was above 100 µM throughout. Moreover, the TGI in the assay on UO-31 renal, in the assay with OVCAR-8 ovarian, in the assay with EKVX NSCLC and in the assay on ACHN renal was above 100 µM throughout.

`CCOC(=O)C(Cc1cn(C(C)=O)c2ccccc12)P(=O)(OCC)OCC` (centres undefined): the TGI with OVCAR-3 ovarian, in the assay on COLO 205 colon, in the assay with RPMI-8226 leukemia, in the assay with LOX IMVI melanoma, in the assay on MDA-MB-231 breast and with UO-31 renal was above 100 µM throughout. The TGI in the assay on OVCAR-8 ovarian and with ACHN renal was above 100 µM throughout.

Turning to `O=C(O)c1cc(=O)c2c(OCC(O)COc3cccc4oc(C(=O)O)cc(=O)c34)cccc2o1`, the TGI with OVCAR-3 ovarian, with COLO 205 colon, in the assay on RPMI-8226 leukemia, in the assay with LOX IMVI melanoma, in the assay with MDA-MB-231 breast and with CCRF-CEM leukemia was above 100 µM each time. Besides, the TGI in the assay on UO-31 renal, in the assay with OVCAR-8 ovarian, with EKVX NSCLC and in the assay on ACHN renal was above 100 µM in each case.

For `Cn1ncc2c(Nc3cccc(Cl)c3)nc(Nc3cccc(Cl)c3)nc21`, the TGI was above 66.6 µM in the assay with OVCAR-3 ovarian; above 53.8 µM with COLO 205 colon; 19.8 µM with RPMI-8226 leukemia; above 85.7 µM in the assay on LOX IMVI melanoma; above 68.3 µM with MDA-MB-231 breast; 2.89 µM in the assay on CCRF-CEM leukemia. The TGI in the assay with UO-31 renal is 35.4 µM; in the assay with OVCAR-8 ovarian it was above 100 µM; in the assay with EKVX NSCLC, 54.8 µM; in the assay with ACHN renal it was 29.2 µM.

`COc1ccc(C(O)(c2ccccc2)c2nccc3ccccc23)cc1` (centres undefined): the TGI was 6.32 µM in the assay on OVCAR-3 ovarian; above 100 µM in the assay with COLO 205 colon; above 100 µM with RPMI-8226 leukemia; above 100 µM in the assay on LOX IMVI melanoma; above 100 µM in the assay with MDA-MB-231 breast; 8.98 µM in the assay on CCRF-CEM leukemia. For the same compound, the TGI in the assay on UO-31 renal was above 100 µM; in the assay with OVCAR-8 ovarian, above 100 µM; in the assay with EKVX NSCLC, 36.9 µM; in the assay with ACHN renal it was above 100 µM.

As to `c1ccc(C(NC2=NCCO2)c2ccccc2)cc1`, the TGI with OVCAR-3 ovarian, with COLO 205 colon, with RPMI-8226 leukemia, in the assay on LOX IMVI melanoma, in the assay on MDA-MB-231 breast and in the assay with CCRF-CEM leukemia was above 10 µM each time. In addition, the TGI in the assay on UO-31 renal, with OVCAR-8 ovarian, in the assay with EKVX NSCLC and in the assay on ACHN renal was above 10 µM throughout.

In the case of `C/C(=N\NC(=S)N(C)C)c1nc2ncccc2[nH]1`, the TGI was 23.9 µM with COLO 205 colon; above 100 µM in the assay with RPMI-8226 leukemia; above 100 µM in the assay on LOX IMVI melanoma; above 100 µM with MDA-MB-231 breast; 1.89 µM in the assay with UO-31 renal; above 100 µM in the assay on OVCAR-8 ovarian. Further, the TGI was above 100 µM in the assay on EKVX NSCLC and 14.7 µM in the assay on ACHN renal.

For the compound `NNC(=O)CCSc1ccccc1`, the TGI in the assay on OVCAR-3 ovarian, in the assay on COLO 205 colon, in the assay on RPMI-8226 leukemia, in the assay on LOX IMVI melanoma, with MDA-MB-231 breast and with CCRF-CEM leukemia was above 100 µM in each case. For the same compound, the TGI in the assay on UO-31 renal, in the assay with OVCAR-8 ovarian, with EKVX NSCLC and with ACHN renal was above 100 µM throughout.

As to `OCCCNc1ncnc2[nH]ncc12`, the TGI in the assay with OVCAR-3 ovarian, with COLO 205 colon, with RPMI-8226 leukemia, in the assay on LOX IMVI melanoma, in the assay on MDA-MB-231 breast and in the assay with CCRF-CEM leukemia was above 100 µM throughout. Also, the TGI in the assay on UO-31 renal, in the assay on OVCAR-8 ovarian, in the assay with EKVX NSCLC and in the assay on ACHN renal was above 100 µM each time.
